Earlier results in patent US6622729B1, “Selective photodynamic treatment” (priority 1999, dated 2003).

Details: SnET2 administered in 0.5 and 1 mg/kg doses

With `CCOC(=O)C1=Cc2c3nc(cc4nc(cc5[n-]c(cc6[n-]c2c(C)c6CC)c(C)c5CC)C(C)=C4CC)[C@@H](C)[C@]13CC.[Cl-].[Cl-].[Sn]` (racemic) [SnET2, tin ethyl etiopurpurin] as the compound, how does the systemic toxicity read?
The systemic toxicity was “no apparent systemic toxicity”.
